For assay [1], the target named is Tyrosine-protein kinase receptor UFO (Homo sapiens) (UniProt P30530). As to the kind of experiment: Selectivity interaction (KinomeScan (DiscoverX)) EUB0000092b AXL. The settings on record: at 10 µM.
Assay [2] deals with Ephrin type-A receptor 2 (Homo sapiens) (UniProt P29317). As to the kind of experiment: Selectivity interaction (KinomeScan (DiscoverX)) EUB0001049a EPHA2. The settings on record: at 1 µM.
For assay [3], the target named is Cyclin-dependent kinase 8 (Homo sapiens, UniProt P49336). As to the kind of experiment: Selectivity interaction (KinomeScan (DiscoverX)) EUB0000655a CDK8. Conditions: at 10 µM.
Assay [4] concerns the target Prostaglandin G/H synthase 1 (Homo sapiens) (UniProt P23219). As to the kind of experiment: Selectivity interaction (Panel of non-epigenetic targets (kinases, GPCRs, ion channels, and transporters, Eurofins) ) EUB0000271b PTGS1. Conditions: at 1 µM.
Assay [5] concerns the target Ribosomal protein S6 kinase beta-1 (Homo sapiens, UniProt P23443). As to the kind of experiment: Selectivity interaction (ActivX KiNativ screen (kinase selectivity in THP-1 cell lysates)) EUB0000639a RPS6KB1. The class given is subcellular. The settings on record: lysate, at 0.01 µM.
Assay [6] deals with T1, Dual specificity tyrosine-phosphorylation-regulated kinase 4 (Homo sapiens) (UniProt Q9NR20).
T1 sequence (whole entry): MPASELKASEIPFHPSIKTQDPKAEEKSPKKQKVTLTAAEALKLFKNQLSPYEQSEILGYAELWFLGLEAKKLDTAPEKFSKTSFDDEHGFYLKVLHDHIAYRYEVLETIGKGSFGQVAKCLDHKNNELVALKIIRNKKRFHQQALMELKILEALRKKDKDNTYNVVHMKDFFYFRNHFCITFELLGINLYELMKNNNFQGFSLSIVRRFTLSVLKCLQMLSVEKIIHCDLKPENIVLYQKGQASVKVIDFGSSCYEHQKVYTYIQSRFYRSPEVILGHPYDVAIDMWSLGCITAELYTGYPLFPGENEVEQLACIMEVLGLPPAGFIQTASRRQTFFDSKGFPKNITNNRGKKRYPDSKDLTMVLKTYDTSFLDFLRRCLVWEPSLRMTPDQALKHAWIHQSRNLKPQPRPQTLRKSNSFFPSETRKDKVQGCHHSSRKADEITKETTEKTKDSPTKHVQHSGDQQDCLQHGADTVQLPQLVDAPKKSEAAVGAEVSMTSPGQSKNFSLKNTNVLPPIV
As to the kind of experiment: Selectivity interaction (Kinase panel (Invitrogen)) EUB0000639a DYRK4. Conditions: at 200 nM.

The target of assay [7] is T2, Cyclin-dependent kinase 11A (Homo sapiens) (UniProt Q9UQ88).
T2 sequence (whole entry): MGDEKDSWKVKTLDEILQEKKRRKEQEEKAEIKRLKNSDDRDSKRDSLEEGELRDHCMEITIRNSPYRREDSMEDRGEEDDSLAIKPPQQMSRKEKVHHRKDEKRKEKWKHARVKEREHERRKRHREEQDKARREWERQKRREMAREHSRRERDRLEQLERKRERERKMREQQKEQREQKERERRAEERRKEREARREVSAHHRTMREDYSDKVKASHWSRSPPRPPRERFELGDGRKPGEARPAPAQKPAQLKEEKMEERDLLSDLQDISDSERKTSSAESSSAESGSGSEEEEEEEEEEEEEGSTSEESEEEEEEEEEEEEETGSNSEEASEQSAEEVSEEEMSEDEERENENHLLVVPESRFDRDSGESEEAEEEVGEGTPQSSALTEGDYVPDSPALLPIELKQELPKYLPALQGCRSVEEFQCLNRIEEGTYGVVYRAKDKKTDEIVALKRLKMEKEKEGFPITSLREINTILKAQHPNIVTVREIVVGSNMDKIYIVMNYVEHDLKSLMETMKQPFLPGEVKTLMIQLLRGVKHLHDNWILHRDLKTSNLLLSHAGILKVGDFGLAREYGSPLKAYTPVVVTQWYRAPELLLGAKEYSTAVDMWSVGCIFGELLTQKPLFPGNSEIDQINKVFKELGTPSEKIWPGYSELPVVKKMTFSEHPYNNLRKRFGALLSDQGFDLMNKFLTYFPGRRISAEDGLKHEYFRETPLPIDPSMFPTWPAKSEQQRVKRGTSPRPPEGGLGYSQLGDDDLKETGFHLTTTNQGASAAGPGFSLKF
As to the kind of experiment: Selectivity interaction (KinomeScan (DiscoverX)) EUB0000229b CDK11A. Conditions: at 10 µM.

Assay [8] deals with T3, Mitogen-activated protein kinase kinase kinase 3 (Homo sapiens) (UniProt Q99759).
T3 sequence (whole entry): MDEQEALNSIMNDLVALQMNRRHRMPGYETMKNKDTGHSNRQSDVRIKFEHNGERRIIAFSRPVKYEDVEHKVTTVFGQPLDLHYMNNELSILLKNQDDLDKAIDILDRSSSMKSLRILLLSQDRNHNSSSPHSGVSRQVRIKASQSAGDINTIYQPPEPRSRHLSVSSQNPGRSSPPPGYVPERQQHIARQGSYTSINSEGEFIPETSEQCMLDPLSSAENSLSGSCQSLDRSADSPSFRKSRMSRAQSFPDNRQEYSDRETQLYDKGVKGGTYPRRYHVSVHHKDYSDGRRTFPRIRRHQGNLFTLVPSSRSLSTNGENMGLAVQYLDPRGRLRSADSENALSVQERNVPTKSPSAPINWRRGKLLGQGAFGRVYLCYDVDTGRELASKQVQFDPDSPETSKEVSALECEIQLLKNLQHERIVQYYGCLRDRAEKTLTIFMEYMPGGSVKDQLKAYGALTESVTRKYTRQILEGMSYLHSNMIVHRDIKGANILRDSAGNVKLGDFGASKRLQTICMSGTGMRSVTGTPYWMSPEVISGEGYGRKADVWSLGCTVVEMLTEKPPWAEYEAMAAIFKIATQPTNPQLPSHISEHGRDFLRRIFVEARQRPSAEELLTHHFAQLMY
As to the kind of experiment: Selectivity interaction (Kinase panel (KiNativ target engagement assay in Jurkat cells)) EUB0001635a MAP3K3. It is filed as cell-based. The settings on record: Selectivity number of off-targets 0.0, Selectivity number of targets 233.0, Source Knowledge https://www.sciencedirect.com/science/article/pii/S2451945619300674?via%3Dihub, at 1 µM.

Sequence of Prostaglandin G/H synthase 1 (Homo sapiens) (P23219 whole entry): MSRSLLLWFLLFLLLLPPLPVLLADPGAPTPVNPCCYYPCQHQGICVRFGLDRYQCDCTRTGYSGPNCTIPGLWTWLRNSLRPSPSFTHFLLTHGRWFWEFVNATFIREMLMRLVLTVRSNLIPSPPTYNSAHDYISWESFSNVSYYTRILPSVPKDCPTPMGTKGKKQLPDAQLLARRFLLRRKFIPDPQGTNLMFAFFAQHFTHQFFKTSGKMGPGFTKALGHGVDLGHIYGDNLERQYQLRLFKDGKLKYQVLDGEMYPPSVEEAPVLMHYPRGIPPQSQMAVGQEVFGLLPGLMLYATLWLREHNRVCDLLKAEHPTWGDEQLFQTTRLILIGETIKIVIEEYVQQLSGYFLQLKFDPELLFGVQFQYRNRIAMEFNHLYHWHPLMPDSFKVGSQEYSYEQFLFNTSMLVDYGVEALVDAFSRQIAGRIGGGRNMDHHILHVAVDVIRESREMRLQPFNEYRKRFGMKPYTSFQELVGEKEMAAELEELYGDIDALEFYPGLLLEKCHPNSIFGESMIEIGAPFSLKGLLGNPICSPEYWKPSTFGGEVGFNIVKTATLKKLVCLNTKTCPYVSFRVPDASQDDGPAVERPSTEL
Sequence of Ephrin type-A receptor 2 (Homo sapiens) (P29317 whole entry): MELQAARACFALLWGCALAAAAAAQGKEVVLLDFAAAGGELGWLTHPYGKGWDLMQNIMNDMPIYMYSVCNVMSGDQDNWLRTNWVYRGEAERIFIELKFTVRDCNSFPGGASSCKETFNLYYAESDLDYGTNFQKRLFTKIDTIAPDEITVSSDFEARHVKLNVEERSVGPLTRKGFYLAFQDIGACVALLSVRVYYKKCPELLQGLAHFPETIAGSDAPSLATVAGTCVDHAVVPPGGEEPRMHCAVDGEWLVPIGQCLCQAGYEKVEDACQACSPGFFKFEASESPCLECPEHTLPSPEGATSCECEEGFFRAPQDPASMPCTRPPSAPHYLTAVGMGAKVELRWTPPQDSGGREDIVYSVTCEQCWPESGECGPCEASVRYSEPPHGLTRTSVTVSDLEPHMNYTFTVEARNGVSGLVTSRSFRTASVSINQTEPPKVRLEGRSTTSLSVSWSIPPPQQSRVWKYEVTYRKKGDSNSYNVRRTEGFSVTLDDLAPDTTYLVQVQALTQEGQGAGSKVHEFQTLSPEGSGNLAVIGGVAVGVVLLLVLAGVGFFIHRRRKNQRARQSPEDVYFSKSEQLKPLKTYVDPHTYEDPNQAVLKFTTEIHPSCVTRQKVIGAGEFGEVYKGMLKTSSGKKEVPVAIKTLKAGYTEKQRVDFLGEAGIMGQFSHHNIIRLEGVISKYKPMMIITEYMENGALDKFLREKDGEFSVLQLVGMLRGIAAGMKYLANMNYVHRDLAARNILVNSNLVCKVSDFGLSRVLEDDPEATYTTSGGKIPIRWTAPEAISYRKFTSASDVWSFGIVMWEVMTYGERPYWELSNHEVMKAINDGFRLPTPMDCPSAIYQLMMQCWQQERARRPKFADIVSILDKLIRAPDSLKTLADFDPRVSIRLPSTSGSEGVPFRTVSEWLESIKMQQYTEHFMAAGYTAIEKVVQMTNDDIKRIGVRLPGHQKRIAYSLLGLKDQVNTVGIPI
Sequence of Ribosomal protein S6 kinase beta-1 (P23443 whole entry, looked up): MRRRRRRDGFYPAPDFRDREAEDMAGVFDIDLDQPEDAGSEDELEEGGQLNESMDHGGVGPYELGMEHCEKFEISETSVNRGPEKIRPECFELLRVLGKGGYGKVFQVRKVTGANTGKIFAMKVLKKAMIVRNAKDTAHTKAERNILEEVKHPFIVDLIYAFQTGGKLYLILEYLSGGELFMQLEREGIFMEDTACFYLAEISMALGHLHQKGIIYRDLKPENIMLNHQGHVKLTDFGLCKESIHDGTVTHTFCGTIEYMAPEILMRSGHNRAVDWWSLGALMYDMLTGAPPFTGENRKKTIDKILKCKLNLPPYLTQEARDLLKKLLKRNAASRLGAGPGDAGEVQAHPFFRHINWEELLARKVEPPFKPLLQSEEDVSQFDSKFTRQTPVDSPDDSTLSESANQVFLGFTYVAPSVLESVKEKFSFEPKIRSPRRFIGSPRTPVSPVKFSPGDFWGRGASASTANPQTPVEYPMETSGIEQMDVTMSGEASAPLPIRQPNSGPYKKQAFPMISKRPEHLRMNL
Sequence of Tyrosine-protein kinase receptor UFO (Homo sapiens) (P30530 whole entry): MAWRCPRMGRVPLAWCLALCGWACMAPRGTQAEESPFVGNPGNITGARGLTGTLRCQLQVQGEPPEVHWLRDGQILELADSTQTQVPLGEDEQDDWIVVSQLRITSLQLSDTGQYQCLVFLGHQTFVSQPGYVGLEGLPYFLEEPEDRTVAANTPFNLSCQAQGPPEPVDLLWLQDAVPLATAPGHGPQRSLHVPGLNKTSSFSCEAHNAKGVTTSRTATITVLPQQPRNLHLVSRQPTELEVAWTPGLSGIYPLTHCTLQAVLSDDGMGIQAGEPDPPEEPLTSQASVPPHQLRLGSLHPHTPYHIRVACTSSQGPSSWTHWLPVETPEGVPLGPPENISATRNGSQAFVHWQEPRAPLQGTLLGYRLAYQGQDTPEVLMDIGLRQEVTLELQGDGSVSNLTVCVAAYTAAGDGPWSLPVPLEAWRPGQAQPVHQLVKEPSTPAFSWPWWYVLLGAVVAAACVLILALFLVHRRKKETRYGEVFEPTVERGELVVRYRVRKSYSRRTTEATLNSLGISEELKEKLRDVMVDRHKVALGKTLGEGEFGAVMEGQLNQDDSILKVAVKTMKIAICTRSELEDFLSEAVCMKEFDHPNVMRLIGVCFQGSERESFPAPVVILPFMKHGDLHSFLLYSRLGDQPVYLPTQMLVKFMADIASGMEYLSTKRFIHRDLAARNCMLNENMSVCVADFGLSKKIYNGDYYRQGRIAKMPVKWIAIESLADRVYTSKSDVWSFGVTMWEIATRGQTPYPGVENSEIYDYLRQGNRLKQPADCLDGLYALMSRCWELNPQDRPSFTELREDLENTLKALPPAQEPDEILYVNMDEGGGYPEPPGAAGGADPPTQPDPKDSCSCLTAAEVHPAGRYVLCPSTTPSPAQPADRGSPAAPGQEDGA
Sequence of Cyclin-dependent kinase 8 (P49336 whole entry): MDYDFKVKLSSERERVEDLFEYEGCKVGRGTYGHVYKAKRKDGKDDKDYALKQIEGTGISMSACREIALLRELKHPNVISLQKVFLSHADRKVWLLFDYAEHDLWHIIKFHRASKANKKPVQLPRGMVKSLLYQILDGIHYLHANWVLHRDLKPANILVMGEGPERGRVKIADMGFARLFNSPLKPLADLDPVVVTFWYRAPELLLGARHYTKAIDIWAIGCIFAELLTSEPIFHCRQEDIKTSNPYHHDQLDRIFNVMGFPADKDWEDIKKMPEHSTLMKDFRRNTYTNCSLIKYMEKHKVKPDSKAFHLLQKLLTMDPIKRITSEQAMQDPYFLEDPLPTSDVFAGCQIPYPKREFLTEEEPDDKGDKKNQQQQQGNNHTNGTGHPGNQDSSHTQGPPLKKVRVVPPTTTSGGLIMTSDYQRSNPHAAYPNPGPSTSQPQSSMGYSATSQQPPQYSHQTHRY

`CCC(=O)N1CCN(c2ccc(-n3c(=O)ccc4cnc5ccc(-c6cnc7ccccc7c6)cc5c43)cc2C(F)(F)F)CC1` showed a % of control in assay [1] of 46%. As to `COc1cc(Nc2nc(C)cc(-c3cnn4nc(OC)ccc34)n2)cc(C(F)(F)F)c1`, in assay [2], the % of control came out at 87%. As for `CN(C)CCOc1ccc(-c2nc(-c3ccncc3)c(-c3ccc4c(c3)CC/C4=N\O)[nH]2)cc1`, in assay [3], the % of control stood at 83%. Turning to `Cc1cc(C)cc([C@@H]2c3cc(C)ccc3NC(=O)CN2C(=O)c2ccc(Br)s2)c1`, the % of inhibition in assay [4] is 17%. For `CC[C@@H]1[C@H](F)C(=O)N[C@@H]1COc1nccc2cc(C(N)=O)c(OC)cc12` [ZIMLOVISERTIB], the % of inhibition is -0.4% in assay [5] and 5.52% in assay [6]. In assay [7], `COc1cc(N(C)c2ccnc3ccc(C(F)(F)F)cc23)cc(OC)c1OC` came in with a % binding of 97%. Molecule `C=CC(=O)Nc1ccc(C(=O)Nc2[nH]nc3c2CN(C(=O)N[C@H](CN(C)C)c2ccccc2)C3(C)C)cc1` showed a % of engagement in assay [8] of 4.7%.

The values above are taken from ChEMBL document CHEMBL5465560, “Selectivity Literature for EUbOPEN Chemogenomic Library” (2024).
